The values below come from patent US12679804B2, “2-(3-ethynylbenzyl)-substituted heterocycle derivatives and related uses” (CENTESSA PHARMACEUTICALS (UK) LIMITED, priority 2021, dated 2026).

Where no end group is shown, it is not given here. A value given as a limit tells only on which side of the number the result lay.

The target in test [1] is T1, human orexin type 2 receptor (hOX2R) (Homo sapiens, UniProt O43614).
T1 construct: expressed in transfected cells
T1 sequence (O43614 1-444): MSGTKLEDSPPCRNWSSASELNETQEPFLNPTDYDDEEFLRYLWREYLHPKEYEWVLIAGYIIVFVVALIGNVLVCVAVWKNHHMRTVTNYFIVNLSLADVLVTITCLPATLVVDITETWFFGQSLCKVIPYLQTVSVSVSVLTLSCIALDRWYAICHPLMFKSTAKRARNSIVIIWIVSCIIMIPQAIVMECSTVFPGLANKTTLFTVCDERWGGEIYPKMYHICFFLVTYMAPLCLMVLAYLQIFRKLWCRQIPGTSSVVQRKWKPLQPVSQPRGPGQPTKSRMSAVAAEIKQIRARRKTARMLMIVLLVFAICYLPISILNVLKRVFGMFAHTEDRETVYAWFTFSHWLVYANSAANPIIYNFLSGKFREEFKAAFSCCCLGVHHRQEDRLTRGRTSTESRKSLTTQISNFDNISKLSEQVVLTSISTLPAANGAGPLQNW
Nature of the test: Orexin type 2 receptor agonist activity (FLIPR TETRA intracellular Ca2+ fluorescence). Format: cell-based. Conditions: for EC50: CHO cells expressing hOX2R, area of Ca2+ fluorescence over 2 min, read-out: hOx2 pEC50 (converted); for Emax at 10 µM: value at 10 μM, dilution buffer = 0%, 10 nM human orexin A = 100%, read-out: hOx2 Emax. On the procedure: Stable cell line generation. Obtainment of cells stably expressing either human orexin type 2 or human orexin type 1 receptor: to obtain a stable cell line the Orexin receptor cDNA was inserted into pcDNA3.1(+) plasmid vector and clones identified by G418 drug resistance selection. […] A single clone for OX2R-CHO and OX1R-CHO were grown in bulk and frozen to generate a cell bank for routine screening.
Measurement of orexin type 2 receptor agonist activity. Chinese hamster ovary (CHO) cells expressing human orexin type 2 receptor (hOX2R) or human orexin […] were seeded in each well of 384 well black clear bottom plates (BD Flacon) at 10,000 cells per well and cultured for 24 hr in an Ham's F12 (Gibco) medium containing 10% fetal calf serum (Sigma Aldrich) under the conditions of 37° C., 5% CO2. After removal of the medium, 50 μl of assay buffer 1 (0.1% bovine serum albumin (Sigma Aldrich), 20 mM HEPES (Molecular Dimensions), […] (Sigma Aldrich), 1× Calcium 5 dye (Molecular Devices) in Hank's balanced salt solution (Invitrogen)) was added, and the cells were incubated for 60 min under the conditions of 37° C., 5% CO2. A test compound was dissolved in dimethyl sulfoxide (Sigma Aldrich) to 10 mM, and then diluted with assay buffer 2 (20 mM HEPES, Hank's balanced salt solution, 0.1% bovine serum albumin). For the reaction, a test compound solution (10 μl) was added using Fluorescent Imaging Plate Reader TETRA (FLIPR TETRA: manufactured by Molecular Devices), a fluorescence value (excitation wavelength 488 nm, measurement wavelength 570 nm) of each well was measured every one second for 2 min, and the agonist activity was determined using the area of the fluorescence value as an indicator of intracellular Ca^2+ concentration. The agonist activity of the test compound was calculated assuming that the fluorescence value of the well added with only the dilution buffer was 0% and the fluorescence value of the well added with 10 nM human orexin A (Tocris) buffer was 100%. As used herein, Emax indicates the value at 10 μM concentration when orexin A is converted to a full agonist (maximum value of agonist activity: 100%).

Test [2] concerns mice. Conditions: cited from earlier work.
Where [3] appears, read: ICV, 3 nmol, orexin-neuron ablated mice.

For the compound `CCS(=O)(=O)NC1CCN(C(=O)C(C)C)C1Cc1cccc(C#CC2(C)COC2)c1` (racemic) [Compound 1-9, N-(1-isobutyryl-2-(3-((3-methyloxetan-3-yl)ethynyl)benzyl)pyrrolidin-3-yl)ethane-sulfonamide], in test [1], the EC50 was more than 100 nM and the Emax (as a rule, the size of the effect at its maximum, as opposed to the concentration needed) at 10 µM was not below 90%.

On to `CCS(=O)(=O)NC1CCN(C(=O)C(C)C)C1Cc1cccc(C#CC2COC2)c1` (racemic) [Compound 1-10, N-(1-isobutyryl-2-(3-(oxetan-3-ylethynyl)benzyl)pyrrolidin-3-yl)ethanesulfonamide], for which, in test [1], the EC50 is more than 100 nM and the Emax at 10 µM is 70 to 80%.

Turning to `CCS(=O)(=O)NC1CCN(C(=O)C(C)C)C1Cc1cccc(C#CCOC)c1F` (racemic) [Compound 1-11, N-(2-(2-fluoro-3-(3-methoxyprop-1-yn-1-yl)benzyl)-1-isobutyrylpyrrolidin-3-yl)ethanesulfonamide], in test [1], the EC50 is more than 100 nM and the Emax at 10 µM is 70 to 80%. `CCS(=O)(=O)NC1CCN(C(=O)C(C)C)C1Cc1cccc(C#CC(C)(C)C)c1` (racemic) [Compound 1-12, N-(2-(3-(3,3-dimethylbut-1-yn-1-yl)benzyl)-1-isobutyrylpyrrolidin-3-yl) ethane-sulfonamide]: in test [1], the EC50 is more than 100 nM and the Emax at 10 µM is not below 90%. For `CCS(=O)(=O)NC1CCN(C(=O)C(C)C)C1Cc1cccc(C#CC2CCCC2)c1` (racemic) [Compound 1-13, N-(2-(3-(cyclopentylethynyl)benzyl)-1-isobutyrylpyrrolidin-3-yl)ethanesulfonamide] the same measures were more than 100 nM and not below 90%. Turning to `CCS(=O)(=O)NC1CCN(C(=O)C(C)C)C1Cc1cccc(C#CC2CC2)c1` (racemic) [Compound 1-14, N-(2-(3-(cyclopropylethynyl)benzyl)-1-isobutyrylpyrrolidin-3-yl) ethanesulfonamide], in test [1], the EC50 is more than 100 nM and the maximal effect (Emax) at 10 µM is not below 90%. For `CCS(=O)(=O)NC1CCN(C(=O)N2CCC2)C1Cc1cccc(C#CC2CC2)n1` (racemic) [Compound 1-17, N-(1-(azetidine-1-carbonyl)-2-((6-(cyclopropylethynyl)pyridin-2-yl)methyl)pyrrolidin-3-yl)ethanesulfonamide] the same measures were more than 100 nM and 80 to 90%. `CCS(=O)(=O)NC1CCN(C(=O)N2CCC2)C1Cc1cccc(C#CC2CC2)c1F` (racemic) [Compound 1-18, N-(1-(azetidine-1-carbonyl)-2-(3-(cyclopropylethynyl)-2-fluorobenzyl)pyrrolidin-3-yl)ethanesulfonamide]: the maximum response (Emax) at 10 µM in test [1] was not below 90%. The same measure, in the same setting: then `CCS(=O)(=O)NC1CCN(C(=O)C2CCC2)C1Cc1cccc(C#CC2CC2)c1F` (racemic) [Compound 1-19, N-(1-(cyclobutanecarbonyl)-2-(3-(cyclopropylethynyl)-2-fluorobenzyl)pyrrolidin-3-yl)ethanesulfonamide], with not below 90%; and `CCS(=O)(=O)NC1CCN(C(=O)C(C)C)C1Cc1cccc(C#CC2CC2)c1F` (racemic) [Compound 1-20, N-(2-(3-(cyclopropylethynyl)-2-fluorobenzyl)-1-isobutyrylpyrrolidin-3-yl)ethanesulfonamide], with not below 90%. On to `CCS(=O)(=O)NC1CCN(C(=O)C(C)(C)O)C1Cc1cccc(C#CC2CC2)c1` (racemic) [Compound 1-21, N-(2-(3-(cyclopropylethynyl)benzyl)-1-(2-hydroxy-2-methylpropanoyl)pyrrolidin-3-yl)ethanesulfonamide], for which, in test [1], the EC50 is more than 100 nM and the Emax at 10 µM lay in the range of 80 to 90%.

As to `CCS(=O)(=O)NC1CCN(C(=O)C(C)(C)O)C1Cc1cccc(C#Cc2ccccc2)c1` (racemic) [Compound 1-22, N-(1-(2-hydroxy-2-methylpropanoyl)-2-(3-(phenylethynyl)benzyl)-pyrrolidin-3-yl)ethanesulfonamide], in test [1], the EC50 is more than 100 nM and the Emax at 10 µM is not below 90%. For `CC1(C#Cc2cccc(C[C@@H]3[C@H](NS(C)(=O)=O)CCCN3C(=O)[C@H]3CCO3)c2F)CC1` (single isomer, unassigned) [Compound 1-4] the same measures were more than 100 nM and 60 to 70%. For `CC1(C#Cc2cccc(C[C@H]3[C@@H](NS(C)(=O)=O)CCCN3C(=O)[C@H]3CCO3)c2F)CC1` (single isomer, unassigned) [Compound 1-5], the Emax at 10 µM in test [1] is not below 90%.

Turning to `CCS(=O)(=O)N[C@@H]1CCN(C(=O)N2CCC2)[C@@H]1Cc1cccc(C#CC2CC2)c1F` (single isomer, unassigned) [Compound 1-15], in test [1], the EC50 is more than 100 nM and the Emax at 10 µM fell in the range of 70 to 80%. In the case of `CCS(=O)(=O)N[C@H]1CCN(C(=O)N2CCC2)[C@H]1Cc1cccc(C#CC2CC2)c1F` (single isomer, unassigned) [Compound 1-16], in test [1], the EC50 was 1 to 10 nM and the Emax at 10 µM is not below 90%. For `CC1(C#Cc2cccc(C[C@H]3[C@@H](NS(C)(=O)=O)CCN3C(=O)[C@H]3CCO3)c2F)CC1` [Compound 1-1, N-((2S,3S)-2-(2-fluoro-3-((1-methylcyclopropyl)ethynyl)benzyl)-1-((R)-oxetane-2-carbonyl)pyrrolidin-3-yl)methanesulfonamide], in test [1], the maximum response (Emax) at 10 µM is not below 90%. Take `CS(=O)(=O)N[C@H]1CCN(C(=O)[C@H]2CCO2)[C@H]1Cc1cccc(C#CC2(C(F)(F)F)CC2)c1F` [Compound 1-2, N-((2S,3S)-2-(2-fluoro-3-((1-(trifluoromethyl)cyclopropyl)ethynyl)benzyl)-1-((R)-oxetane-2-carbonyl)pyrrolidin-3-yl)methanesulfonamide]: the Emax at 10 µM in test [1] is not below 90%. In the case of `CC1(C#Cc2cccc(C[C@H]3[C@@H](NS(C)(=O)=O)CCN3C(=O)[C@H]3CCO3)c2)CC1` [Compound 1-3, N-((2S,3S)-2-(3-((1-methylcyclopropyl)ethynyl)benzyl)-1-((R)-oxetane-2-carbonyl)pyrrolidin-3-yl)methanesulfonamide], the Emax at 10 µM in test [1] is not below 90%.

`CCNC(=O)N1CC[C@H](NS(C)(=O)=O)[C@@H]1Cc1cccc(C#CC2(C)CC2)c1F` [Compound 1-6, (2S,3S)—N-ethyl-2-(2-fluoro-3-((1-methylcyclopropyl)ethynyl)benzyl)-3-(methylsulfonamido)pyrrolidine-1-carboxamide]: in test [1], the Emax at 10 µM was not below 90%. In the case of `CS(=O)(=O)N[C@H]1CCN(C(=O)N2CCC2)[C@H]1Cc1cccc(C#CC2CCC2)c1F` [Compound 1-7, N-((2S,3S)-1-(azetidine-1-carbonyl)-2-(3-(cyclobutylethynyl)-2-fluorobenzyl)-pyrrolidin-3-yl)methanesulfonamide], the Emax at 10 µM in test [1] is not below 90%.

`CC1(C#Cc2cccc(C[C@H]3[C@@H](NS(C)(=O)=O)CCN3C(=O)N3CCC3)c2F)CC1` [Compound 1-8, N-((2S,3S)-1-(azetidine-1-carbonyl)-2-(2-fluoro-3-((1-methylcyclopropyl)-ethynyl)benzyl)pyrrolidin-3-yl)methanesulfonamide]: in test [1], the EC50 was 1 to 10 nM and the Emax at 10 µM is not below 90%. Regarding `COC(=O)N1CCC[C@H](NS(C)(=O)=O)[C@@H]1CO[C@H]1CC[C@@H](c2ccccc2)CC1` [TAK-925], the wakefulness result in test [2] (subcutaneous, WT mice) was “modestly increases wakefulness”. Regarding “orexin A: orexin peptide cleaved from prepro-orexin; 10 nM human orexin A (Tocris) defines 100% agonist activity (QPLPDCCRQKTCSCRLYELLHGAGNHAAGILTL; ends and bridges not checked; cysteine pairing not given here; UniProt O43612 34-66, looked up)”, in test [2] (setting [3]), the cataplexy-like behavior entry was “decreases cataplexy-like behavior” and the time spent awake result was “increase time spent awake”.
